Results as given in ChEMBL document CHEMBL4483862, “Open-source discovery of chemical leads for next-generation chemoprotective antimalarials” (2018).

System: Plasmodium berghei
Assay: Luciferase/luciferin-expressing antifolate-resistant parasites were used to infect a culture of HepG2 cells that were pre-incubated with compounds. Infected hepatocytes emit light due to the luciferase reaction. Assay results are presented as the percent inhibition of light emission compared to control. […]
Assay type: functional
Conditions: sporozoite; for IC90: read-out: LUCIFERASE INFECTION ASSAY - IC90

Compound	IC90	other results
CC(C)Cc1ccc(C(=O)CC(Sc2ccccc2N)c2cccc([N+](=O)[O-])c2)cc1 (configuration not stated)	2.86 µM	IC50 (FFLUC_HILL_SLOPE 39.9, FFLUC_R_SQUARED 0.525, PBLUC_HILL_SLOPE 1.28, PBLUC_R_SQUARED 0.727, read-out: LUCIFERASE INFECTION ASSAY - IC50): 0.511 µM
CCCn1c(NC(=O)c2ccccc2SCc2c(C)noc2C)nc2ccccc21	9.89 µM	IC50 (FFLUC_HILL_SLOPE 30, FFLUC_R_SQUARED 0.401, HEPG2TOX_HILL_SLOPE 7.23, HEPG2TOX_R_SQUARED 0.341, PBLUC_HILL_SLOPE 15.1, PBLUC_R_SQUARED 0.618, read-out: LUCIFERASE INFECTION ASSAY - IC50): 8.55 µM
Cc1ccc(N2C(=N)C(c3nc4ccccc4s3)C(c3ccccc3)C2=O)cc1 (configuration not stated)	> 10 µM	IC50 (FFLUC_HILL_SLOPE 38.3, FFLUC_R_SQUARED 0.217, HEPG2TOX_HILL_SLOPE 0.75, HEPG2TOX_R_SQUARED 0.479, read-out: LUCIFERASE INFECTION ASSAY - IC50): > 10 µM
O=C(Oc1ccc(Cl)cc1Sc1cc(Cl)ccc1OC(=O)c1cccs1)c1cccs1	> 6.5 µM	IC50 (FFLUC_HILL_SLOPE 35.2, FFLUC_R_SQUARED 0.259, read-out: LUCIFERASE INFECTION ASSAY - IC50): > 6.5 µM
CSc1sc(C(=O)OC2CCCCC2)c2c1C(=O)CC(C)(C)C2	> 9.36 µM	IC50 (FFLUC_HILL_SLOPE 35.3, FFLUC_R_SQUARED 0.0335, read-out: LUCIFERASE INFECTION ASSAY - IC50): > 9.36 µM
CC1CCC(C(C)C)C(N(Cc2ccccc2)C(=O)c2cccc3ccccc23)C1 (configuration not stated)	> 8.26 µM	IC50 (FFLUC_HILL_SLOPE 35.1, FFLUC_R_SQUARED 0.0345, HEPG2TOX_HILL_SLOPE 5.62, HEPG2TOX_R_SQUARED 0.422, PBLUC_HILL_SLOPE 0.939, PBLUC_R_SQUARED 0.258, read-out: LUCIFERASE INFECTION ASSAY - IC50): 6.39 µM
CCOC(=O)c1c(C2CC2)csc1NC(=O)COC(=O)c1cc(C)n(-c2cc(Cl)ccc2OC)c1C	> 10 µM	IC50 (FFLUC_HILL_SLOPE 35.2, FFLUC_R_SQUARED 0.269, read-out: LUCIFERASE INFECTION ASSAY - IC50): > 10 µM
CCOC(=O)c1ccc(N2CCCCC2)c(NC(=O)c2sc3ccccc3c2Cl)c1	> 7.45 µM	IC50 (FFLUC_HILL_SLOPE 35, FFLUC_R_SQUARED 0.23, read-out: LUCIFERASE INFECTION ASSAY - IC50): > 7.45 µM
Cn1c(CSc2cccs2)n[nH]c1=S	> 13.6 µM	IC50 (FFLUC_HILL_SLOPE 40, FFLUC_R_SQUARED 0.0342, read-out: LUCIFERASE INFECTION ASSAY - IC50): > 13.6 µM
O=C1C=C(c2ccccc2)C(=O)N1c1cccc(Cl)c1	> 11.6 µM	IC50 (FFLUC_HILL_SLOPE 29.2, FFLUC_R_SQUARED 0.289, PBLUC_HILL_SLOPE 11, PBLUC_R_SQUARED 0.329, read-out: LUCIFERASE INFECTION ASSAY - IC50): 11.3 µM
COc1cc(/C=C2\COc3c(Cl)cc(Cl)cc3C2=O)cc(OC)c1O	7.17 µM	IC50 (FFLUC_HILL_SLOPE 30.3, FFLUC_R_SQUARED 0.145, HEPG2TOX_HILL_SLOPE 11.5, HEPG2TOX_R_SQUARED 0.166, PBLUC_HILL_SLOPE 35.9, PBLUC_R_SQUARED 0.493, read-out: LUCIFERASE INFECTION ASSAY - IC50): 6.74 µM
CCOc1ccc(-n2c(SCC(=O)Nc3cc(C(C)(C)C)nn3-c3ccccc3)nc3ccccc32)cc1	> 10 µM	IC50 (FFLUC_HILL_SLOPE 35.3, FFLUC_R_SQUARED 0.234, PBLUC_HILL_SLOPE 11.6, PBLUC_R_SQUARED 0.616, read-out: LUCIFERASE INFECTION ASSAY - IC50): 8.73 µM
Cc1cc([N+](=O)[O-])cc(S(=O)(=O)N(C)Cc2ccc(C(=O)NC3CC3)cc2)c1C	6.84 µM	IC50 (FFLUC_HILL_SLOPE 30.1, FFLUC_R_SQUARED 0.449, PBLUC_HILL_SLOPE 4.67, PBLUC_R_SQUARED 0.152, read-out: LUCIFERASE INFECTION ASSAY - IC50): 4.27 µM
O=C(NC1CCSc2ccc(Cl)cc21)c1cc(Br)c[nH]1 (configuration not stated)	> 10 µM	IC50 (FFLUC_HILL_SLOPE 30.3, FFLUC_R_SQUARED 0.512, PBLUC_HILL_SLOPE 1.67, PBLUC_R_SQUARED 0.28, read-out: LUCIFERASE INFECTION ASSAY - IC50): 5.71 µM
OCCNc1ncnc2c1c(-c1ccccc1)cn2-c1ccc(Cl)cc1	> 10 µM	IC50 (FFLUC_HILL_SLOPE 35.7, FFLUC_R_SQUARED 0.282, read-out: LUCIFERASE INFECTION ASSAY - IC50): > 10 µM
Cc1cc(NC(=O)c2ccc(CSCc3c(Cl)cccc3Cl)cc2)no1	1.31 µM	IC50 (FFLUC_HILL_SLOPE 28.8, FFLUC_R_SQUARED 0.69, PBLUC_HILL_SLOPE 8.08, PBLUC_R_SQUARED 0.529, read-out: LUCIFERASE INFECTION ASSAY - IC50): 0.997 µM

Compound	IC90	other results
CCOC(=O)c1c(S(=O)(=O)Nc2cccc(C(F)(F)F)c2)c(-c2ccccc2)n(-c2ccccc2)c1C	> 6.24 µM	IC50 (FFLUC_HILL_SLOPE 40.4, FFLUC_R_SQUARED 0.424, read-out: LUCIFERASE INFECTION ASSAY - IC50): > 6.24 µM
CC(C)Cn1c(N)c(C(=O)COC(=O)c2cc(-c3cccs3)nc3ccccc23)c(=O)n(C)c1=O	3.23 µM	IC50 (FFLUC_HILL_SLOPE 33.5, FFLUC_R_SQUARED 0.479, PBLUC_HILL_SLOPE 4.72, PBLUC_R_SQUARED 0.427, read-out: LUCIFERASE INFECTION ASSAY - IC50): 2.03 µM
O=C(Nc1ccc(-n2nncc2-c2ccccc2)cc1)c1ccc(S(=O)(=O)N2CCCCC2)cc1	9.56 µM	IC50 (FFLUC_HILL_SLOPE 38.4, FFLUC_R_SQUARED 0.244, HEPG2TOX_HILL_SLOPE 8, HEPG2TOX_R_SQUARED 0.798, PBLUC_HILL_SLOPE 2.57, PBLUC_R_SQUARED 0.825, read-out: LUCIFERASE INFECTION ASSAY - IC50): 4.06 µM
CS/C(Nc1cccc(C(F)(F)F)c1)=C(/C#N)S(=O)(=O)c1ccc(Cl)cc1	> 7.62 µM	IC50 (FFLUC_HILL_SLOPE 30.1, FFLUC_R_SQUARED 0.771, HEPG2TOX_HILL_SLOPE 1.92, HEPG2TOX_R_SQUARED 0.988, PBLUC_HILL_SLOPE 2.74, PBLUC_R_SQUARED 0.0319, read-out: LUCIFERASE INFECTION ASSAY - IC50): 4.34 µM
O=C(Nc1ccc(OC(F)(F)F)cc1)Sc1ccc(Cl)s1	> 9.33 µM	IC50 (FFLUC_HILL_SLOPE 30.4, FFLUC_R_SQUARED 0.438, HEPG2TOX_HILL_SLOPE 8.9, HEPG2TOX_R_SQUARED 0.733, PBLUC_HILL_SLOPE 2, PBLUC_R_SQUARED 0.693, read-out: LUCIFERASE INFECTION ASSAY - IC50): 3.61 µM
CCOC(=O)c1c(-c2ccccc2)csc1NC(=O)c1cc(-c2ccco2)nc2ccccc12	9.72 µM	IC50 (FFLUC_HILL_SLOPE 28.5, FFLUC_R_SQUARED 0.474, PBLUC_HILL_SLOPE 2.84, PBLUC_R_SQUARED 0.759, read-out: LUCIFERASE INFECTION ASSAY - IC50): 4.48 µM
Cc1onc(-c2ccccc2)c1-c1csc(Nc2cc(C(F)(F)F)cc(C(F)(F)F)c2)n1	3.88 µM	IC50 (FFLUC_HILL_SLOPE 38.4, FFLUC_R_SQUARED 0.44, HEPG2TOX_HILL_SLOPE 9.25, HEPG2TOX_R_SQUARED 0.968, PBLUC_HILL_SLOPE 81.8, PBLUC_R_SQUARED 0.627, read-out: LUCIFERASE INFECTION ASSAY - IC50): 3.78 µM
CC(C)NC(=O)c1c(NC(=O)c2cccc(C(F)(F)F)c2)nc2ccccn12	0.971 µM	IC50 (FFLUC_HILL_SLOPE 39.4, FFLUC_R_SQUARED 0.293, HEPG2TOX_HILL_SLOPE 0.926, HEPG2TOX_R_SQUARED 0.794, PBLUC_HILL_SLOPE 4.31, PBLUC_R_SQUARED 0.785, read-out: LUCIFERASE INFECTION ASSAY - IC50): 0.583 µM
Cc1cc(-c2cccc3[nH]c(C(F)(F)F)nc23)nn1C(=O)c1ccc([N+](=O)[O-])cc1	> 10 µM	IC50 (FFLUC_HILL_SLOPE 35.5, FFLUC_R_SQUARED 0.403, HEPG2TOX_HILL_SLOPE 0.192, HEPG2TOX_R_SQUARED 0.301, PBLUC_HILL_SLOPE 13.6, PBLUC_R_SQUARED 0.349, read-out: LUCIFERASE INFECTION ASSAY - IC50): 9.27 µM
C=CCn1c(Sc2nc(C)nc3sc4c(c23)CCC4)nnc1-c1ccco1	> 10 µM	IC50 (FFLUC_HILL_SLOPE 38.3, FFLUC_R_SQUARED 0.259, read-out: LUCIFERASE INFECTION ASSAY - IC50): > 10 µM
CCCCNC(=O)c1c(NC(=O)COc2ccccc2)nc2ccc(C)cn12	8.47 µM	IC50 (FFLUC_HILL_SLOPE 32.7, FFLUC_R_SQUARED 0.34, HEPG2TOX_HILL_SLOPE 7.48, HEPG2TOX_R_SQUARED 0.362, PBLUC_HILL_SLOPE 14.2, PBLUC_R_SQUARED 0.182, read-out: LUCIFERASE INFECTION ASSAY - IC50): 7.25 µM
CCCc1ccc(-c2nc(-c3ccccc3)no2)cc1	0.0999 µM	IC50 (FFLUC_HILL_SLOPE 35.1, FFLUC_R_SQUARED 0.438, PBLUC_HILL_SLOPE 1.27, PBLUC_R_SQUARED 0.957, read-out: LUCIFERASE INFECTION ASSAY - IC50): 0.0177 µM
CCCOc1ccc(C=C(c2nc3ccccc3s2)c2nc3ccccc3s2)c(O)c1	> 10 µM	IC50 (FFLUC_HILL_SLOPE 30.4, FFLUC_R_SQUARED 0.313, read-out: LUCIFERASE INFECTION ASSAY - IC50): > 10 µM
CC(C)N(c1ccccc1)c1ccc(NC(=O)COC(=O)c2ccc(Cl)c(S(=O)(=O)N(Cc3ccccc3)c3ccc(Cl)cc3)c2)cc1	> 10 µM	IC50 (FFLUC_HILL_SLOPE 30.3, FFLUC_R_SQUARED 0.617, PBLUC_HILL_SLOPE 4.64, PBLUC_R_SQUARED 0.334, read-out: LUCIFERASE INFECTION ASSAY - IC50): 9.19 µM
O=S(=O)(Nc1cc(C(F)(F)F)cc(C(F)(F)F)c1)c1ccccc1Oc1ccc(Cl)cc1Cl	> 6.22 µM	IC50 (FFLUC_HILL_SLOPE 40.5, FFLUC_R_SQUARED 0.634, read-out: LUCIFERASE INFECTION ASSAY - IC50): > 6.22 µM
